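Results reflect a 48-hour exposure of cells in 96-well plates to compound at five concentrations. TGI: total growth inhibition.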
How the values were obtained:
Assay in all cases: growth of human tumour cells (NCI), 48 h
MDA-MB-435 = tested on: MDA-MB-435
KM12 colon = tested on: KM12 colon
TK-10 renal = tested on: TK-10 renal
DMS 273 small cell lung = tested on: DMS 273 small cell lung
OVCAR-4 ovarian = tested on: OVCAR-4 ovarian
SK-MEL-2 melanoma = tested on: SK-MEL-2 melanoma
XF 498 CNS = tested on: XF 498 CNS
SF-539 CNS = tested on: SF-539 CNS
786-0 renal = tested on: 786-0 renal
OVCAR-8 ovarian = tested on: OVCAR-8 ovarian
SNB-19 CNS = tested on: SNB-19 CNS
U251 CNS = tested on: U251 CNS
SK-OV-3 ovarian = tested on: SK-OV-3 ovarian
NCI-H460 lung = tested on: NCI-H460 lung
KM20L2 colon = tested on: KM20L2 colon
EKVX NSCLC = tested on: EKVX NSCLC
SF-268 CNS = tested on: SF-268 CNS
SR leukemia = tested on: SR leukemia
A498 renal = tested on: A498 renal
NCI-H522 lung = tested on: NCI-H522 lung
RXF 393 renal = tested on: RXF 393 renal
MOLT-4 leukemia = tested on: MOLT-4 leukemia
HCT-116 colon = tested on: HCT-116 colon
COLO 205 colon = tested on: COLO 205 colon
OVCAR-3 ovarian = tested on: OVCAR-3 ovarian
SF-295 CNS = tested on: SF-295 CNS
K-562 leukemia = tested on: K-562 leukemia
SN12C renal = tested on: SN12C renal
UACC-257 melanoma = tested on: UACC-257 melanoma
LXFL 529 NSCLC = tested on: LXFL 529 NSCLC
UO-31 renal = tested on: UO-31 renal
NCI/ADR-RES ovarian = tested on: NCI/ADR-RES ovarian
DU-145 prostate = tested on: DU-145 prostate
MDA-MB-231 breast = tested on: MDA-MB-231 breast
SNB-78 CNS = tested on: SNB-78 CNS
HS 578T breast = tested on: HS 578T breast
CCRF-CEM leukemia = tested on: CCRF-CEM leukemia
UACC-62 melanoma = tested on: UACC-62 melanoma
OVCAR-5 ovarian = tested on: OVCAR-5 ovarian
MCF7 breast = tested on: MCF7 breast
NCI-H23 lung = tested on: NCI-H23 lung
T-47D breast = tested on: T-47D breast
HT29 colon = tested on: HT29 colon
IGROV1 ovarian = tested on: IGROV1 ovarian
M19-MEL melanoma = tested on: M19-MEL melanoma
HOP-62 NSCLC = tested on: HOP-62 NSCLC
HCC-2998 colon = tested on: HCC-2998 colon
MDA-N = tested on: MDA-N
BT-549 breast = tested on: BT-549 breast
A549 NSCLC = tested on: A549 NSCLC
SK-MEL-5 melanoma = tested on: SK-MEL-5 melanoma
RPMI-8226 leukemia = tested on: RPMI-8226 leukemia
LOX IMVI melanoma = tested on: LOX IMVI melanoma
HOP-18 NSCLC = tested on: HOP-18 NSCLC
HOP-92 NSCLC = tested on: HOP-92 NSCLC
HL-60(TB) leukemia = tested on: HL-60(TB) leukemia
MALME-3M melanoma = tested on: MALME-3M melanoma
NCI-H226 lung = tested on: NCI-H226 lung
CAKI-1 renal = tested on: CAKI-1 renal
DLD-1 colon = tested on: DLD-1 colon
SNB-75 CNS = tested on: SNB-75 CNS
M14 melanoma = tested on: M14 melanoma
SW-620 colon = tested on: SW-620 colon
PC-3 prostate = tested on: PC-3 prostate
SK-MEL-28 melanoma = tested on: SK-MEL-28 melanoma
HCT-15 colon = tested on: HCT-15 colon
DMS 114 small cell lung = tested on: DMS 114 small cell lung
ACHN renal = tested on: ACHN renal

Nc1ccc2c(SCc3ccc([N+](=O)[O-])cc3)c3ccccc3nc2c1
TGI (MDA-MB-435): 33.7 µM | TGI (KM12 colon): 27 µM | TGI (TK-10 renal): 26.5 µM | TGI (DMS 273 small cell lung): 39.2 µM | TGI (OVCAR-4 ovarian): 30.6 µM | TGI (SK-MEL-2 melanoma): 32.4 µM | TGI (XF 498 CNS): 27.7 µM | TGI (SF-539 CNS): 30.8 µM | TGI (786-0 renal): 20.1 µM | TGI (OVCAR-8 ovarian): 26.7 µM | TGI (SNB-19 CNS): 59.1 µM | TGI (U251 CNS): 38.1 µM | TGI (SK-OV-3 ovarian): 42.7 µM | TGI (NCI-H460 lung): 47.2 µM | TGI (KM20L2 colon): 31.6 µM | TGI (EKVX NSCLC): 59 µM | TGI (SF-268 CNS): 30.8 µM | TGI (SR leukemia): 5.05 µM | TGI (A498 renal): 49.2 µM | TGI (NCI-H522 lung): 15.1 µM | TGI (RXF 393 renal): 42.3 µM | TGI (MOLT-4 leukemia): 6.73 µM | TGI (HCT-116 colon): 22.7 µM | TGI (COLO 205 colon): 6.36 µM | TGI (OVCAR-3 ovarian): 30.2 µM | TGI (SF-295 CNS): 36.8 µM | TGI (K-562 leukemia): 27.9 µM | TGI (SN12C renal): 34 µM | TGI (UACC-257 melanoma): 33.6 µM | TGI (LXFL 529 NSCLC): 18.5 µM | TGI (UO-31 renal): 27.2 µM | TGI (NCI/ADR-RES ovarian): 40.6 µM | TGI (DU-145 prostate): 17.9 µM | TGI (MDA-MB-231 breast): > 55.8 µM | TGI (SNB-78 CNS): 63.7 µM | TGI (HS 578T breast): 48 µM | TGI (CCRF-CEM leukemia): 5.15 µM | TGI (UACC-62 melanoma): 31.3 µM | TGI (OVCAR-5 ovarian): 35.9 µM | TGI (MCF7 breast): 27.6 µM | TGI (NCI-H23 lung): 32.8 µM | TGI (T-47D breast): 22.6 µM | TGI (HT29 colon): 32.6 µM | TGI (IGROV1 ovarian): 39.5 µM | TGI (M19-MEL melanoma): 26.5 µM | TGI (HOP-62 NSCLC): 46.5 µM | TGI (HCC-2998 colon): > 54 µM | TGI (MDA-N): 31.1 µM | TGI (BT-549 breast): 32.1 µM | TGI (A549 NSCLC): 48.9 µM | TGI (SK-MEL-5 melanoma): 28.4 µM | TGI (RPMI-8226 leukemia): 14.2 µM | TGI (LOX IMVI melanoma): 19.1 µM | TGI (HOP-18 NSCLC): 26.5 µM | TGI (HOP-92 NSCLC): 36.4 µM | TGI (HL-60(TB) leukemia): 10.1 µM | TGI (MALME-3M melanoma): 26.8 µM | TGI (NCI-H226 lung): 38.3 µM | TGI (CAKI-1 renal): 28.7 µM | TGI (DLD-1 colon): 6.04 µM | TGI (SNB-75 CNS): 34.7 µM | TGI (M14 melanoma): 24.1 µM | TGI (SW-620 colon): 13.8 µM | TGI (PC-3 prostate): 29.7 µM | TGI (SK-MEL-28 melanoma): 33.5 µM | TGI (HCT-15 colon): 31.1 µM | TGI (DMS 114 small cell lung): 29.8 µM | TGI (ACHN renal): 14.5 µM

CCOc1ccc(/C(Cl)=C(\C=O)c2ccc(OC)c(OC)c2)cc1OCC
TGI (KM12 colon): > 100 µM | TGI (TK-10 renal): > 100 µM | TGI (DMS 273 small cell lung): > 100 µM | TGI (OVCAR-4 ovarian): > 100 µM | TGI (SK-MEL-2 melanoma): > 100 µM | TGI (XF 498 CNS): > 100 µM | TGI (SF-539 CNS): > 100 µM | TGI (786-0 renal): > 100 µM | TGI (OVCAR-8 ovarian): > 100 µM | TGI (SNB-19 CNS): > 100 µM | TGI (U251 CNS): 97.5 µM | TGI (SK-OV-3 ovarian): > 100 µM | TGI (NCI-H460 lung): > 100 µM | TGI (KM20L2 colon): > 100 µM | TGI (EKVX NSCLC): > 100 µM | TGI (SF-268 CNS): > 100 µM | TGI (SR leukemia): 50.8 µM | TGI (NCI-H522 lung): > 100 µM | TGI (RXF 393 renal): > 100 µM | TGI (MOLT-4 leukemia): > 100 µM | TGI (HCT-116 colon): > 100 µM | TGI (COLO 205 colon): > 100 µM | TGI (OVCAR-3 ovarian): > 100 µM | TGI (SF-295 CNS): > 100 µM | TGI (K-562 leukemia): > 100 µM | TGI (SN12C renal): > 100 µM | TGI (UACC-257 melanoma): > 100 µM | TGI (LXFL 529 NSCLC): > 100 µM | TGI (UO-31 renal): > 100 µM | TGI (SNB-78 CNS): > 100 µM | TGI (CCRF-CEM leukemia): > 100 µM | TGI (UACC-62 melanoma): > 100 µM | TGI (OVCAR-5 ovarian): > 100 µM | TGI (NCI-H23 lung): > 100 µM | TGI (HT29 colon): > 100 µM | TGI (IGROV1 ovarian): > 100 µM | TGI (M19-MEL melanoma): > 100 µM | TGI (HOP-62 NSCLC): > 100 µM | TGI (HCC-2998 colon): > 100 µM | TGI (A549 NSCLC): > 100 µM | TGI (SK-MEL-5 melanoma): 64.9 µM | TGI (RPMI-8226 leukemia): > 100 µM | TGI (LOX IMVI melanoma): > 100 µM | TGI (HOP-18 NSCLC): > 100 µM | TGI (HOP-92 NSCLC): > 100 µM | TGI (HL-60(TB) leukemia): 62.7 µM | TGI (MALME-3M melanoma): > 100 µM | TGI (NCI-H226 lung): > 100 µM | TGI (CAKI-1 renal): > 100 µM | TGI (DLD-1 colon): > 100 µM | TGI (SNB-75 CNS): > 100 µM | TGI (M14 melanoma): > 100 µM | TGI (SW-620 colon): > 100 µM | TGI (SK-MEL-28 melanoma): > 100 µM | TGI (HCT-15 colon): > 100 µM | TGI (DMS 114 small cell lung): 66.1 µM | TGI (ACHN renal): > 100 µM

COc1ccc2c(c1)[n+]([O-])c(-c1ccc(OC)c(OC)c1)c(N)[n+]2[O-]
TGI (KM12 colon): > 100 µM | TGI (TK-10 renal): > 100 µM | TGI (DMS 273 small cell lung): > 100 µM | TGI (OVCAR-4 ovarian): > 100 µM | TGI (SK-MEL-2 melanoma): > 100 µM | TGI (XF 498 CNS): > 100 µM | TGI (SF-539 CNS): > 100 µM | TGI (786-0 renal): > 100 µM | TGI (OVCAR-8 ovarian): > 100 µM | TGI (SNB-19 CNS): > 100 µM | TGI (U251 CNS): > 100 µM | TGI (SK-OV-3 ovarian): > 100 µM | TGI (NCI-H460 lung): > 100 µM | TGI (KM20L2 colon): > 100 µM | TGI (EKVX NSCLC): > 100 µM | TGI (SF-268 CNS): > 100 µM | TGI (A498 renal): > 100 µM | TGI (NCI-H522 lung): 31.5 µM | TGI (MOLT-4 leukemia): > 100 µM | TGI (COLO 205 colon): 34.5 µM | TGI (OVCAR-3 ovarian): > 100 µM | TGI (SF-295 CNS): > 100 µM | TGI (K-562 leukemia): > 100 µM | TGI (SN12C renal): > 100 µM | TGI (UACC-257 melanoma): > 100 µM | TGI (LXFL 529 NSCLC): > 100 µM | TGI (UO-31 renal): > 100 µM | TGI (SNB-78 CNS): > 100 µM | TGI (CCRF-CEM leukemia): > 100 µM | TGI (UACC-62 melanoma): > 100 µM | TGI (OVCAR-5 ovarian): > 100 µM | TGI (NCI-H23 lung): 57 µM | TGI (HT29 colon): > 100 µM | TGI (IGROV1 ovarian): > 100 µM | TGI (M19-MEL melanoma): > 100 µM | TGI (HOP-62 NSCLC): > 100 µM | TGI (HCC-2998 colon): > 100 µM | TGI (A549 NSCLC): > 100 µM | TGI (SK-MEL-5 melanoma): 83 µM | TGI (RPMI-8226 leukemia): > 100 µM | TGI (LOX IMVI melanoma): > 100 µM | TGI (HOP-18 NSCLC): > 100 µM | TGI (HL-60(TB) leukemia): > 100 µM | TGI (MALME-3M melanoma): > 100 µM | TGI (NCI-H226 lung): > 100 µM | TGI (CAKI-1 renal): 72.2 µM | TGI (DLD-1 colon): > 100 µM | TGI (SNB-75 CNS): > 100 µM | TGI (M14 melanoma): > 100 µM | TGI (SW-620 colon): > 100 µM | TGI (SK-MEL-28 melanoma): 69.4 µM | TGI (HCT-15 colon): > 100 µM | TGI (DMS 114 small cell lung): > 100 µM | TGI (ACHN renal): > 100 µM

From PubChem BioAssay (NCI)
